Data: US20250122144A1, “Compound and Molded Body Comprising Same” (LG Chem, Ltd., priority 2022, published 2025)

Test: Evaluation of heat resistance by thermogravimetric analyzer (TGA), primary thermal decomposition temperature
Format: physicochemical
Settings: N2 atmospheric environment, FIG. 9
Method: In this experiment, the evaluation of heat resistance was defined as an extrapolated intersection point (primary thermal decomposition temperature) between a starting mass reference line and the tangent line of the maximum slope point in the first mass reduction section of a mass loss curve measured by a thermogravimetric analyzer (TGA) in an N2 atmospheric environment.
In the present disclosure, it is determined that when the primary thermal decomposition temperature of the compound has a value higher than the primary thermal decomposition temperature of the material before anion substitution, the heat resistance has increased.

| Td (thermal decomposition temperature) | heat resistance compared with the material before anion substitution | SMILES |
| --- | --- | --- |
| about 230 °C | – | C=C(C)C(=O)OCC[N+](C)(C)CCCCCCCCCC.[Br-] [Comparative Example 4-1] |
| – | heat resistance is improved | C=C(C)C(=O)OCC[N+](C)(C)CCCCCCCCCC.O=S(=O)([O-])O [Example 4-1] |
